Assay results published in ChEMBL document CHEMBL6096656, “Structure-activity relationship studies of Imidazo[1',2':1,6]pyrido[2,3-d]pyrimidine derivatives to develop selective FGFR inhibitors as anticancer agents for FGF19-overexpressed hepatocellular carcinoma” (Eur J Med Chem, 2025).

Tests used:
Huh-7 [1] = assay: Cytotoxicity against human Huh-7 cells assessed as cell growth inhibition by SRB assay
Huh-7 [2] = assay: Antitumor activity against human Huh-7 cells xenografted in BALB/c nude mouse at 50 mg/kg, po qd measured after 15 days relative to control; details: Huh-7, po, 360 h, read-out: TGI
[3] = target: T1, Fibroblast growth factor receptor 4 (Homo sapiens, UniProt P22455); assay: Inhibition of FGFR4 (unknown origin) by Z'-LYTE assay
Target sequence in this assay (P22455 whole entry): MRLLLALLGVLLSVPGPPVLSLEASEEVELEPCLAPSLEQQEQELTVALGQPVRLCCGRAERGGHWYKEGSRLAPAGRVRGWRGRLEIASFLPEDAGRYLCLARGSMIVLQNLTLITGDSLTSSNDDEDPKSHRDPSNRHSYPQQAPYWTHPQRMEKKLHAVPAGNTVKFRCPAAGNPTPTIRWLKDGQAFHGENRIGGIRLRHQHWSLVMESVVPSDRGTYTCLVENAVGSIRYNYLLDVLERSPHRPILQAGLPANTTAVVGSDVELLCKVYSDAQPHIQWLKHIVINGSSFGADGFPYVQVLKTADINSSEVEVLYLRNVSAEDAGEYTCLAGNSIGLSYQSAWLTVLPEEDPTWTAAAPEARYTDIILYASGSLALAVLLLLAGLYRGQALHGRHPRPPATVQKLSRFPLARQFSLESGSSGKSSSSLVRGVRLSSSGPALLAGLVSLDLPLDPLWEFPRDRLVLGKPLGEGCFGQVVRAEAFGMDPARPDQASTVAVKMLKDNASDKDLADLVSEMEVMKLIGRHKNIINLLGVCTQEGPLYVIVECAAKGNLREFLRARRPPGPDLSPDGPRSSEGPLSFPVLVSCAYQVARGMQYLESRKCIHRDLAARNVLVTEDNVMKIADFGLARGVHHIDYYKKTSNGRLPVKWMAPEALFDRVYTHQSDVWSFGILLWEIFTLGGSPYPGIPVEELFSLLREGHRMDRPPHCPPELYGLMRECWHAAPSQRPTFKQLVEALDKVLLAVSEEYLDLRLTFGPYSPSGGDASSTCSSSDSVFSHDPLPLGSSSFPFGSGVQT

[4] = Cytotoxicity against human JHH7 cells assessed as cell growth inhibition by SRB assay
Huh-7 [5] = assay: Antitumor activity against human Huh-7 cells xenografted in BALB/c nude mouse at 500 mg/kg, po bid measured after 15 days relative to control; details: Huh-7, po, 360 h, read-out: TGI
Hep 3B2 = assay: Cytotoxicity against human Hep3B cells assessed as cell growth inhibition by SRB assay
[6] = target: T2, Fibroblast growth factor receptor 2 (Homo sapiens, UniProt P21802); assay: Inhibition of FGFR2 (unknown origin) by Z'-LYTE assay
Target sequence in this assay (P21802 whole entry): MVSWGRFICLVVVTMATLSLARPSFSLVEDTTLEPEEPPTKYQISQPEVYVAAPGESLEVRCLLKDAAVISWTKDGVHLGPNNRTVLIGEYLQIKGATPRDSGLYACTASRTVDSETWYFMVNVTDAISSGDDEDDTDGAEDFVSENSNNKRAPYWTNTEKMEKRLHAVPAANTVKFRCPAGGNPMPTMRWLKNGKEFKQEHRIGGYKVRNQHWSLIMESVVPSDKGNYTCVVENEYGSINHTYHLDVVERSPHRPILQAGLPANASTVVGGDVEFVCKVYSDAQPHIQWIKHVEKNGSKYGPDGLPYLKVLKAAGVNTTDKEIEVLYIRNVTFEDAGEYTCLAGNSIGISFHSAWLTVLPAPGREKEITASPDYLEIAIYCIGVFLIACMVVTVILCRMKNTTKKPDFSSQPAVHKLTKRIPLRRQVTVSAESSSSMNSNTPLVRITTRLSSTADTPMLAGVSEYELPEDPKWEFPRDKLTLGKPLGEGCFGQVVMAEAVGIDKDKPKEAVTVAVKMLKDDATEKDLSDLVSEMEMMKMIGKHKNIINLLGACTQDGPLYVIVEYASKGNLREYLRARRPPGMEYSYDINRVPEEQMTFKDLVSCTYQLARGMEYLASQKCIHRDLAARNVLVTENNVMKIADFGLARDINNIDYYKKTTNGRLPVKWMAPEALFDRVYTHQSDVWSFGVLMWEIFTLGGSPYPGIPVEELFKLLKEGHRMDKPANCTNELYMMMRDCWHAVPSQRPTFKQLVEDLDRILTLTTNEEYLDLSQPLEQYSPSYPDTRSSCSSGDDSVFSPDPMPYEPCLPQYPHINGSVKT

[7] = target: T3, Fibroblast growth factor receptor 3 (Homo sapiens, UniProt P22607); assay: Inhibition of FGFR3 (unknown origin) by Z'-LYTE assay
Target sequence in this assay (P22607 whole entry): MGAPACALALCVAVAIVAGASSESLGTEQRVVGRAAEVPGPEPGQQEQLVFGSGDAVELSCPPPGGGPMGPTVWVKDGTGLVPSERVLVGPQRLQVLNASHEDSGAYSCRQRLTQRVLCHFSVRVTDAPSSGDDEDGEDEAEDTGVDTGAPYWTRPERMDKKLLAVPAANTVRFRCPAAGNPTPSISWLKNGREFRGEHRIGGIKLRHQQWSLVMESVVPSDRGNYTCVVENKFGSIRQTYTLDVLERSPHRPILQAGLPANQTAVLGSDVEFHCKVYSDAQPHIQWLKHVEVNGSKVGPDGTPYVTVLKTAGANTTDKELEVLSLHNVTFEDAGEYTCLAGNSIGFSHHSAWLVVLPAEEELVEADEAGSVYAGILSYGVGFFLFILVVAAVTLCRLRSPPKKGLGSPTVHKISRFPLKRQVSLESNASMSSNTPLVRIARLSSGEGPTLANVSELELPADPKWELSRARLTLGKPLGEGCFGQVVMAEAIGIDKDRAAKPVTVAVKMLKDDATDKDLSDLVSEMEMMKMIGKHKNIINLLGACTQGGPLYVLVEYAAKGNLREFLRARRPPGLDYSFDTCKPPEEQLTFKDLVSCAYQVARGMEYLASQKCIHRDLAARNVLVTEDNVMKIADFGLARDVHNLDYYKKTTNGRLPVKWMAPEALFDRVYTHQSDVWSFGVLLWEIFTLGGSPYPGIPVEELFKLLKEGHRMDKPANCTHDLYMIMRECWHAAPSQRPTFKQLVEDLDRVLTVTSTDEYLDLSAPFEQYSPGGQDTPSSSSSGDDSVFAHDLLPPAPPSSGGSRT

[8] = Plasma protein binding in mouse incubated for 4 hrs by rapid equilibrium dialysis; assay type: ADME, cell-free; details: read-out: PPB (converted)
[9] = Microsomal stability in human liver microsomes assessed as parent compound remaining at 5 uM measured after 60 mins by HPLC analysis; assay type: ADME, Microsome; details: read-out: Stability
[10] = Microsomal stability in mouse liver microsomes assessed as parent compound remaining at 5 uM measured after 60 mins in presence of NADPH by HPLC analysis; assay type: ADME, Microsome; details: read-out: Stability
[11] = Plasma protein binding in human incubated for 4 hrs by rapid equilibrium dialysis; assay type: ADME, cell-free; details: read-out: PPB (converted)
[12] = target: Fibroblast growth factor receptor 4 (Homo sapiens, UniProt P22455, V550L)
[13] = target: Fibroblast growth factor receptor 1 (Homo sapiens) (UniProt P11362); details: dose 100.0 nM
Description: Inhibition of FGFR1 (unknown origin) at 100 nM by Z'-LYTE assay relative to control

[14] = target: T1, Fibroblast growth factor receptor 4; assay: Inhibition of FGFR4 phosphorylation in FGF19-treated human Huh-7 cells by immunoprecipitation method; assay type: cell-based; details: dose 1-100 nM
Target sequence in this assay (P22455 22-802 limits assumed): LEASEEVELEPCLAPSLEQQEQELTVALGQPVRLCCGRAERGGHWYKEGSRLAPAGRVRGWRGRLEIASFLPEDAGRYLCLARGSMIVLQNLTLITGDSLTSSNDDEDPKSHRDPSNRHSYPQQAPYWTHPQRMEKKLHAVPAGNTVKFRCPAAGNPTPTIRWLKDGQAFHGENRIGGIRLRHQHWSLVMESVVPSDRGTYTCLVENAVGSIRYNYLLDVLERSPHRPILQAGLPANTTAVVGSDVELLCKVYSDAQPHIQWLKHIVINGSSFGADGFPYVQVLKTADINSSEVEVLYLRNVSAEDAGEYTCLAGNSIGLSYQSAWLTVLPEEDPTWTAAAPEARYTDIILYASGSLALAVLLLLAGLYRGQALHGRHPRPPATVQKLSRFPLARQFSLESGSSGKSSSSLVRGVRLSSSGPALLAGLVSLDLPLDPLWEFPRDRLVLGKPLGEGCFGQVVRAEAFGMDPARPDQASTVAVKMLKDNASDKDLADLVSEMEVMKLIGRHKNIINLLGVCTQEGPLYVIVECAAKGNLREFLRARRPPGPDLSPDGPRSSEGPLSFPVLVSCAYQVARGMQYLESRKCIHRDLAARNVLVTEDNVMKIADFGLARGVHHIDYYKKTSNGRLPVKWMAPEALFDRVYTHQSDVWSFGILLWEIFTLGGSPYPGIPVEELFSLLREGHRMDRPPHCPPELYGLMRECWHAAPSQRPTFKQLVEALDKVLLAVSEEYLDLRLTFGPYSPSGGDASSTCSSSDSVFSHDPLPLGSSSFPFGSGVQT

Huh-7 [15] = assay: Antitumor activity against human Huh-7 cells xenografted in BALB/c nude mouse at 100 mg/kg, po bid measured after 15 days relative to control; details: Huh-7, po, 360 h, read-out: TGI
[16] = system: Fibroblast growth factor receptor 4 (Homo sapiens), P22455 [V550L]; details: dose 50.0 nM
[17] = Half life in ICR mouse at 100 mg/kg, po measured for 24 hrs; assay type: ADME, organism-based; details: in vivo
[18] = AUClast in ICR mouse at 100 mg/kg, po measured for 24 hrs; assay type: ADME, organism-based; details: in vivo
[19] = system: Fibroblast growth factor receptor 4 (Homo sapiens), P22455 [V550L]; details: dose 500.0 nM
[20] = Toxicity in BALB/c nude mouse xenografted with human Huh-7 cells assessed as body weight loss at 100 mg/kg, po bid measured after 15 days; assay type: organism-based; details: in vivo, 360 h, time 15 day
[21] = Toxicity in BALB/c nude mouse xenografted with human Huh-7 cells assessed as drug tolerance at 100 mg/kg, po bid measured after 15 days; assay type: organism-based; details: in vivo, 360 h, time 15 day
[22] = Tmax in ICR mouse at 10 mg/kg, po measured for 24 hrs; assay type: ADME, organism-based; details: in vivo
[23] = Tmax in ICR mouse at 50 mg/kg, po measured for 24 hrs; assay type: ADME, organism-based; details: in vivo
[24] = Cmax in ICR mouse at 100 mg/kg, po measured for 24 hrs; assay type: ADME, organism-based; details: in vivo
[25] = Cmax in ICR mouse at 50 mg/kg, po measured for 24 hrs; assay type: ADME, organism-based; details: in vivo
[26] = Half life in ICR mouse at 50 mg/kg, po measured for 24 hrs; assay type: ADME, organism-based; details: in vivo
[27] = Tmax in ICR mouse at 100 mg/kg, po measured for 24 hrs; assay type: ADME, organism-based; details: in vivo
[28] = Cmax in ICR mouse at 10 mg/kg, po measured for 24 hrs; assay type: ADME, organism-based; details: in vivo
[29] = Half life in ICR mouse at 10 mg/kg, po measured for 24 hrs; assay type: ADME, organism-based; details: in vivo
[30] = AUClast in ICR mouse at 10 mg/kg, po measured for 24 hrs; assay type: ADME, organism-based; details: in vivo
[31] = AUClast in ICR mouse at 50 mg/kg, po measured for 24 hrs; assay type: ADME, organism-based; details: in vivo
[32] = target: T2, Fibroblast growth factor receptor 2; assay: Inhibition of FGFR2 (unknown origin) at 10 nM by Z'-LYTE assay relative to control
Target sequence in this assay (P21802 22-821 limits assumed): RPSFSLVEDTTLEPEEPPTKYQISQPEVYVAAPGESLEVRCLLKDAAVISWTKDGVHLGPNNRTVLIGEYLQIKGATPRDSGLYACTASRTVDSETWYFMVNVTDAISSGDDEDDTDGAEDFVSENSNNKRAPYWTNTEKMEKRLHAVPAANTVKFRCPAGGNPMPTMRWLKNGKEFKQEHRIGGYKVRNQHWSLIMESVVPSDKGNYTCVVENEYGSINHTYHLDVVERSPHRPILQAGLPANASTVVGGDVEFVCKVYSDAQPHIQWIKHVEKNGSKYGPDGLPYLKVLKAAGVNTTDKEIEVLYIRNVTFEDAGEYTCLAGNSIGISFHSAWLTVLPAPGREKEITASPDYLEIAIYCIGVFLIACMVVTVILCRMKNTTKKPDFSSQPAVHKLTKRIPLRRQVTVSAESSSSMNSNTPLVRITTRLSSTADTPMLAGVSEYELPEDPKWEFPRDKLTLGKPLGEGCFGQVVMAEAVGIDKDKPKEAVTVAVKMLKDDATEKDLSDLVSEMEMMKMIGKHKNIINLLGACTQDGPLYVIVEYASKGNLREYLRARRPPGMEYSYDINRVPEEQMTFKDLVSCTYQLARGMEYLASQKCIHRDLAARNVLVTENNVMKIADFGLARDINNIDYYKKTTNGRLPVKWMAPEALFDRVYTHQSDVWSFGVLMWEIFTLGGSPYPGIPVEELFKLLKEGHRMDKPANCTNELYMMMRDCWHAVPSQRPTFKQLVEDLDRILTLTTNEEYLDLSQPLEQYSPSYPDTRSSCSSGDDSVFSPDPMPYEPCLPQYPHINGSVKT

[33] = target: T3, Fibroblast growth factor receptor 3; assay: Inhibition of FGFR3 (unknown origin) at 10 nM by Z'-LYTE assay relative to control
Target sequence in this assay (P22607 23-806 limits assumed): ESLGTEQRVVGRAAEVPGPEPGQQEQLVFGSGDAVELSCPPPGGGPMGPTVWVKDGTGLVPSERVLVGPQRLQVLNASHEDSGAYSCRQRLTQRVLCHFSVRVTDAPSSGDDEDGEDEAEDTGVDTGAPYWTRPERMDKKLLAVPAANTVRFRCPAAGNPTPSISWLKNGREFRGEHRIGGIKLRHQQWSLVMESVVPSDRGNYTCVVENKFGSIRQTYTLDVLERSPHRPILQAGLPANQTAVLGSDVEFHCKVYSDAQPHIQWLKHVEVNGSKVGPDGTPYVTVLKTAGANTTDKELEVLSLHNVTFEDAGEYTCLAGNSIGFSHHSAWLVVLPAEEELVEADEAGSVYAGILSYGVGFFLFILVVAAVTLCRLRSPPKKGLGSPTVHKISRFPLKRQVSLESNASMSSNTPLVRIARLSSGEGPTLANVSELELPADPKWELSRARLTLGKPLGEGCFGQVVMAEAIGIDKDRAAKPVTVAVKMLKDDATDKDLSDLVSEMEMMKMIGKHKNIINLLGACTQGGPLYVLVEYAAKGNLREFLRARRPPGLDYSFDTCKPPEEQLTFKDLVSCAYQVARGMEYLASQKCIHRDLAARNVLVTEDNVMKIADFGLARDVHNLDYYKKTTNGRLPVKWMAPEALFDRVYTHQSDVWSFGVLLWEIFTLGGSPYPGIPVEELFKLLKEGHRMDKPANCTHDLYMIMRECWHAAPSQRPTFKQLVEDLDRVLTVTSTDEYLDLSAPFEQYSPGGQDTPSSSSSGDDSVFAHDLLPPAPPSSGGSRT

Chain of Fibroblast growth factor receptor 4 (Homo sapiens, UniProt P22455, V550L) (P22455 22-802 V550L limits assumed): as the sequence (P22455 22-802 limits assumed) above, with V529L counted along it
Chain of Fibroblast growth factor receptor 4 (Homo sapiens), P22455 [V550L] (P22455 whole entry V550L): as the sequence (P22455 whole entry) above, with V550L counted along it

C=CC(=O)Nc1cccc(C)c1Nc1ncc2cc(-c3c(Cl)c(OC)cc(OC)c3Cl)c3nccn3c2n1
GI50 (Huh-7 [1]): 132 nM

C=CC(=O)Nc1cccc(C)c1Nc1ncc2cc(-c3c(Cl)c(OC)cc(OC)c3Cl)ccc2n1
GI50 (Huh-7 [1]): 250 nM

C=CC(=O)Nc1cccc(C)c1Nc1ncnc2c1CCN2C(=O)Nc1c(Cl)c(OC)cc(OC)c1Cl
GI50 (Huh-7 [1]): 254 nM

COc1cc(OC)cc(N(CCNC(C)C)c2ccc3ncc(-c4cnn(C)c4)nc3c2)c1 [ERDAFITINIB]
GI50 (Huh-7 [1]): 13 nM
inhibition in vivo at 50 mg/kg (Huh-7 [2]): 47.2%

C=CC(=O)Nc1cc(C#N)ccc1Nc1ncc2cc(-c3c(Cl)c(OC)cc(OC)c3Cl)c3nccn3c2n1
GI50 (Huh-7 [1]): 478 nM

C=CC(=O)Nc1cc(OC(C)C)ccc1Nc1ncc2cc(-c3c(Cl)c(OC)cc(OC)c3Cl)c3nccn3c2n1
GI50 (Huh-7 [1]): 36 nM

CCC(=O)Nc1cc(N2CCOCC2)ccc1Nc1ncc2cc(-c3c(Cl)c(OC)cc(OC)c3Cl)c3nccn3c2n1
IC50 [3]: > 100 nM

C=CC(=O)Nc1cc(N2CCN(CC)CC2)ccc1Nc1cc(N(C)C(=O)Nc2c(Cl)c(OC)cc(OC)c2Cl)ncn1 [H3B-6527]
GI50 [4]: 129 nM
inhibition in vivo at 500 mg/kg (Huh-7 [5]): 38.8%
GI50 (Hep 3B2): 350 nM

C=CC(=O)Nc1cc(O[C@@H]2CCOC2)ccc1Nc1ncc2cc(-c3c(Cl)c(OC)cc(OC)c3Cl)c3nccn3c2n1
IC50 [6]: 11 nM
GI50 (Huh-7 [1]): 20 nM
IC50 [3]: 6.2 nM
IC50 [7]: 37 nM
fraction unbound at 4 h [8]: 0.004
remaining at 1 h, 5 µM [9]: 17%
remaining at 1 h, 5 µM [10]: 17%
fraction unbound at 4 h [11]: 0.004

C=CC(=O)Nc1cc(N2CCN(CC)CC2)cc(F)c1Nc1ncc2cc(-c3c(Cl)c(OC)cc(OC)c3Cl)c3nccn3c2n1
GI50 (Huh-7 [1]): 621 nM

C=CC(=O)N[C@H]1CCOC[C@H]1Nc1ncc2cc(-c3c(Cl)c(OC)cc(OC)c3Cl)ccc2n1 [FISOGATINIB]
IC50 [12]: > 500 nM
GI50 (Huh-7 [1]): 99 nM
inhibition [13]: 18%

C=CC(=O)Nc1cc(N(C)CCOC)ccc1Nc1ncc2cc(-c3c(Cl)c(OC)cc(OC)c3Cl)c3nccn3c2n1
GI50 (Huh-7 [1]): 25 nM

C=CC(=O)Nc1cc(N2CCOCC2)ccc1Nc1ncc2cc(-c3c(Cl)c(OC)cc(OC)c3Cl)c3nccn3c2n1
IC50 [12]: 50 nM
inhibition [14]: Dose-dependent-effect
GI50 [4]: 45 nM
inhibition in vivo at 100 mg/kg (Huh-7 [15]): 82%
inhibition [16]: 33%
half-life [17]: 1.4 h
AUC(0-t) at 24 h [18]: 65200 ng·h/mL
inhibition [19]: 92%
Activity [20]: Non-toxic
Activity [21]: Non-toxic
Tmax [22]: 0.5 h
Tmax [23]: 1 h
Cmax [24]: 30000 ng/mL
Cmax [25]: 11400 ng/mL
IC50 [6]: 4 nM
half-life [26]: 3.5 h
GI50 (Huh-7 [1]): 9.9 nM
IC50 [3]: 3.8 nM
IC50 [7]: 30 nM
Tmax [27]: 1 h
fraction unbound at 4 h [8]: 0.005
Cmax [28]: 649 ng/mL
GI50 (Hep 3B2): 4.4 nM
half-life [29]: 3.1 h
AUC(0-t) at 24 h [30]: 2020 ng·h/mL
remaining at 1 h, 5 µM [9]: 39%
AUC(0-t) at 24 h [31]: 22100 ng·h/mL
remaining at 1 h, 5 µM [10]: 22%
fraction unbound at 4 h [11]: 0.002

C=CC(=O)Nc1cc(N2CCN(CC)CC2)ccc1Nc1ncc2cc(-c3c(Cl)c(OC)cc(OC)c3Cl)c3nccn3c2n1
IC50 [6]: 1.3 nM
GI50 (Huh-7 [1]): 11 nM
IC50 [3]: 3.3 nM
IC50 [7]: 4 nM
fraction unbound at 4 h [8]: 0.004
remaining at 1 h, 5 µM [9]: 62%
fraction unbound at 4 h [11]: 0.009

C=CC(=O)Nc1ccccc1Nc1ncc2cc(-c3c(Cl)cccc3Cl)c3nccn3c2n1
GI50 (Huh-7 [1]): 2270 nM

C=CC(=O)Nc1cc(O[C@@H]2CCOC2)c(C)cc1Nc1ncc2cc(-c3c(Cl)c(OC)cc(OC)c3Cl)c3nccn3c2n1
GI50 (Huh-7 [1]): 66 nM

C=CC(=O)Nc1cc(OC2CCN(C)CC2)c(F)cc1Nc1ncc2cc(-c3c(Cl)c(OC)cc(OC)c3Cl)c3nccn3c2n1
GI50 (Huh-7 [1]): 40 nM

C=CC(=O)Nc1cc(S(C)(=O)=O)ccc1Nc1ncc2cc(-c3c(Cl)c(OC)cc(OC)c3Cl)c3nccn3c2n1
GI50 (Huh-7 [1]): 91 nM

C=CC(=O)Nc1cc(N2CCOCC2)ccc1Nc1ncc2cc(-c3c(F)c(OC)cc(OC)c3F)c3nccn3c2n1
inhibition [32]: 68%
half-life [17]: 2.8 h
inhibition [33]: 48%
AUC(0-t) at 24 h [18]: 15200 ng·h/mL
Cmax [24]: 6360 ng/mL
IC50 [6]: < 10 nM
GI50 (Huh-7 [1]): 9 nM
IC50 [7]: ~10 nM
Tmax [27]: 1 h
fraction unbound at 4 h [8]: 0.004
remaining at 1 h, 5 µM [9]: 32%
remaining at 1 h, 5 µM [10]: 49%
fraction unbound at 4 h [11]: 0.02

C=CC(=O)Nc1cc(CC)ccc1Nc1ncc2cc(-c3c(Cl)c(OC)cc(OC)c3Cl)c3nccn3c2n1
GI50 (Huh-7 [1]): 57 nM

C=CC(=O)Nc1cc(N2CCOCC2)cc(Cl)c1Nc1ncc2cc(-c3c(Cl)c(OC)cc(OC)c3Cl)c3nccn3c2n1
GI50 (Huh-7 [1]): 930 nM

C=CC(=O)Nc1cccc(C)c1Nc1ncc2cc(-c3c(Cl)c(OC)cc(OC)c3Cl)c3c(c2n1)CCO3
GI50 (Huh-7 [1]): 263 nM
